Experimental data reported in US7148194B2, “Method to increase fibronectin” (Kimberly-Clark Worldwide, Inc., priority 2002, dated 2006).
“Also recorded” adds a separate entry of the source.

Tests used:
MMP-9 = target: T1, MMP-9 (Homo sapiens, UniProt P14780); experiment: enzymatic hydrolysis of fluoresceinated collagen by MMP-9; format: biochemical; settings: extended time assay, FIG. 8
T1 construct: Active MMP-9 enzyme was purchased from Calbiochem; purchased Calbiochem
Procedure: Two enzymatic assays were performed. The first assay measured the enzymatic hydrolysis of fluoresceinated collagen by MMP-9 as a function of time. […] The protein mixture was added to the collagen substrate, and was quickly mixed. Fluorescence emission intensity at 520 nm was measured as a function of time (excitation wavelength 495 nm) in a Shimadzu RF5301 fluorometer (Lakowicz, 1983). The fluorescein release assay was used to determine the inhibitory constant (Ki) of the peptide inhibitor ([I]) according to Segel (1993) via the use of Dixon plots (1/v vs. [I]), such that: slope=Km/(Vmax Ki [S]) (1) where Km is the Michaelis constant, Vmax is the reaction maximum velocity, and [S] is the substrate concentration.

pro-MMP-9 = pro-MMP-9 (Homo sapiens, UniProt P14780); experiment: anti-activation (splicing) assay: conversion of pro-MMP-9 by stromilysin, HPLC; format: biochemical; settings: pro-MMP-9 with stromilysin, micromolar 19-mer
Chain of pro-MMP-9 (P14780 20-707): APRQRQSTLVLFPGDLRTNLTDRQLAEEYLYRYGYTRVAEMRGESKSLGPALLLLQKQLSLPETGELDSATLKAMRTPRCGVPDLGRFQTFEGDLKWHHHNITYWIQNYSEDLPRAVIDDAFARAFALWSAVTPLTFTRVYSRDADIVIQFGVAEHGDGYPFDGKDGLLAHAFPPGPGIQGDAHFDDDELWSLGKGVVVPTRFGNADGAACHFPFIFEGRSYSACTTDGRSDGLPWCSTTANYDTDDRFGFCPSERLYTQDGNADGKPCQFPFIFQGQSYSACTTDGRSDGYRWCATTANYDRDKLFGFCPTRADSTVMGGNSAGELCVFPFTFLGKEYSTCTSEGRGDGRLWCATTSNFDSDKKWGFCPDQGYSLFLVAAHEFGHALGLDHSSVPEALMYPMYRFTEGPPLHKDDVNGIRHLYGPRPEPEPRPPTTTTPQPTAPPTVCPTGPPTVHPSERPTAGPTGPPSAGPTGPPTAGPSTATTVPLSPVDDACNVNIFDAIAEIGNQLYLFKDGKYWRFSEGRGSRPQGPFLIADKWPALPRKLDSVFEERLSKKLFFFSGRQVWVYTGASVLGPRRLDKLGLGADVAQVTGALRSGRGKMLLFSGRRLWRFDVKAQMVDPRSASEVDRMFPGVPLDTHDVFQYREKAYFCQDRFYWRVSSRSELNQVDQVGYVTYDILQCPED
Procedure: The assay measured how much proenzyme was converted into mature matrix metalloproteinase. Proenzyme pro-MMP-9 (100 μg) was mixed with 0.5 μg of stromilysin in PBS. The reaction was incubated at 35° C. Aliquots were removed from the reaction over an 80-minute time course. […] The zero (injection) time point was a single peak that eluted from the column in approximately 750 seconds. This peak reduced in size as a function of time, and two new peaks appeared. The first peak eluted at approximately 800 seconds, and represents the mature form of MMP-9. The second peak eluted at approximately 1100 seconds, and corresponds to the N-terminal pro-domain fragment. Peak areas were determined by integrating over the elution profile, and the percent area changes were plotted.
The first peak, eluting at approximately 700 seconds, is pro-MMP-9. As the splicing reaction proceeds, this peak decreases in intensity (as marked with the downwards arrow), and two new peaks appear. The first new peak, eluting at approximately 800 seconds, is mature and active MMP-9. The second new peak, eluting at approximately 1050 seconds, is the prodomain. As the splicing reaction proceeds, the intensity of these two peaks increases (as marked with the upwards arrows). When the reaction is complete, there is no detectable pro-MMP-9 remaining.

T1 sequence (P14780 107-707 limits assumed): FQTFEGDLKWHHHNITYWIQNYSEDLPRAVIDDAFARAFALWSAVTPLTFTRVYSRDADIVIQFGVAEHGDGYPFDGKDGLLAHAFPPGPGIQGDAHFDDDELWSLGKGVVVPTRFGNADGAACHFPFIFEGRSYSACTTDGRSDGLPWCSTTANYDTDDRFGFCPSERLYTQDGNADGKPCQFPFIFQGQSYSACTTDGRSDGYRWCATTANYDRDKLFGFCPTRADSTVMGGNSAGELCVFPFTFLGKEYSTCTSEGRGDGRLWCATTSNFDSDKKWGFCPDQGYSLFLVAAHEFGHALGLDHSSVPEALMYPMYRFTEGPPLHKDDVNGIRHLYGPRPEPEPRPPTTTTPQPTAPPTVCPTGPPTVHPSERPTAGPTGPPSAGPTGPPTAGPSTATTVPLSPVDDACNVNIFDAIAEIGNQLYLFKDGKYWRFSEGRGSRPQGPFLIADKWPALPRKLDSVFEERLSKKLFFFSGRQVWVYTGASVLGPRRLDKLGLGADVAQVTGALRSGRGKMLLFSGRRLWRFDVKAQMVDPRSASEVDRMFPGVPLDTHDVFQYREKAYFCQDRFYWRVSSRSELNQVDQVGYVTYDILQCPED

In the case of `CC(C)[C@H](NC(=O)[C@H](CC(=O)O)NC(=O)[C@@H]1CCCN1C(=O)[C@H](CC(N)=O)NC(=O)CNC(=O)[C@H](CS)NC(=O)[C@H](CCCNC(=N)N)NC(=O)[C@@H]1CCCN1)C(=O)N[C@@H](C)C(=O)N[C@@H](CC(N)=O)C(=O)N[C@@H](Cc1ccc(O)cc1)C(=O)N[C@@H](CC(N)=O)C(=O)N[C@@H](Cc1ccccc1)C(=O)N[C@@H](Cc1ccccc1)C(=O)N1CCC[C@H]1C(=O)N[C@@H](CCCNC(=N)N)C(=O)N[C@@H](CCCCN)C(=O)N1CCC[C@H]1C(=O)N[C@@H](CCCCN)C(=O)O` [Peptide 19-mer], the “time over which MMP-9 catalyzed hydrolysis of collagen is effectively inhibited” value (MMP-9) is reported as > 1000 min and the “inhibition of conversion of pro-MMP-9 into prodomain and active enzyme (splicing)” value (pro-MMP-9) is reported as “prevents the activation; also recorded: inhibited in a dose dependent manner”.
